Here are results for 6 compounds from US4994441A, “Dental anti-plaque and anti-caries agent” (priority 1987, dated 1991).

One assay concerns A. naeslundii ATCC 12104. The conditions noted are these: A. naeslundii ATCC 12104, no control of growth phase; desialylated human erythrocytes (A+); none = no inhibition up to 20 mg/ml.
In assay [1] the test system is A. viscosus OMZ 105.
For a further assay, the system named is S. sanguis OMZ 9. The conditions noted are these: for Inhibition (%) of bacterial adhesion to plastic tubes: 1 mg/ml, 4 h; for Inhibitory effect on adhesion to plastic tubes (in words): preliminary tests.
Another assay relates to S. mutans OMZ 176. In words: Inhibition of bacterial adhesion to plastic (polypropylene) tubes. To be noted: 1 mg/ml, 4 h.
The subject of assay [2] is A. viscosus OMZ 105. To be noted: for Inhibition (%) of bacterial adhesion to plastic tubes: 1 mg/ml, 4 h; for Inhibitory effect on adhesion to plastic tubes (in words): preliminary tests.

As for `OC[C@H]1O[C@@H](O[C@H]2[C@H](O)[C@@H](O)C(O)O[C@@H]2CO)[C@H](O)[C@@H](O)[C@H]1O` (some centres unmarked) [Lactose], the “Minimum concentration resulting in complete inhibition of hemagglutination” value in the assay with A. naeslundii ATCC 12104 is on record as “none”; in the assay with A. viscosus OMZ 105 [1] (A. viscosus OMZ 105, no control of growth phase, desialylated human erythrocytes (A+), none = no inhibition up to 20 mg/ml), “none”. The “Concentration expressed in galactoside equivalents/ml (minimum concentration resulting in complete inhibition of hemagglutination)” value in the assay on A. viscosus OMZ 105 [1] (A. viscosus OMZ harvested in the exponential phase) was above 10 mg/mL. In addition, the “Concentration expressed in dry weight/ml (minimum concentration resulting in complete inhibition of hemagglutination)” value in the assay with A. viscosus OMZ 105 [1] (A. viscosus OMZ harvested in the exponential phase, none = no inhibition up to 20 mg/ml) is “none”.
As for `COC1OC(CO)C(O)C(O)C1O` (stereo not drawn) [Methyl α annoside], the “Inhibition (%) of bacterial adhesion to plastic tubes” value with S. sanguis OMZ 9 was found to be 11%; in the assay on S. mutans OMZ 176 it was 3%; in the assay on A. viscosus OMZ 105 [2], 10%.
Take `O=C[C@H](O)[C@@H](O)[C@H](O)[C@H](O)CO` [glucose]: the “Inhibitory effect on adhesion to plastic tubes (in words)” value in the assay on S. sanguis OMZ 9 and in the assay on A. viscosus OMZ 105 [2] was “nonactivity” in each case.
As to `NCC(=O)O` [glycine], the “Inhibitory effect on adhesion to plastic tubes (in words)” value in the assay with S. sanguis OMZ 9 and with A. viscosus OMZ 105 [2] was “nonactivity” in each case.
Consider Polyglutamic acid, for which the “Inhibition (%) of bacterial adhesion to plastic tubes” value was 6% with S. sanguis OMZ 9, 20% in the assay with S. mutans OMZ 176 and 22% in the assay with A. viscosus OMZ 105 [2].
On the same counts, the results for Polylysine are 12%, 30% and 46%.
